Assay results published in ChEMBL document CHEMBL5674879, “Enhancer variants reveal a conserved transcription factor network governed by PU.1 during osteoclast differentiation” (Bone Res, 2018).
Active and inactive are the calls of the source.

Experiments:
Type in all cases: functional, cell-based
[1] = tested on: Leukemia cell; test: Downregulation of Nfatc1 mRNA expression in osteoclasts of human CSF1-induced mouse primary bone marrow derived acute myeloid leukemia cells at 250 nM measured by RT-qPCR analysis
[2] = tested on: Leukemia cell; test: Effect on osteoclast differentiation in human CSF1-induced mouse primary bone marrow derived acute myeloid leukemia cells at 250 nM assessed as reduction in PU.1 enrichment at PU.1 enhancers near d Fosl2 measured by Conventional ChIP analysis
[3] = tested on: Leukemia cell; test: Effect on osteoclast differentiation in human CSF1-induced mouse primary bone marrow derived acute myeloid leukemia cells at 250 nM assessed as reduction in PU.1 enrichment at PU.1 enhancers near Nfatc1 measured by Conventional ChIP analysis
[4] = tested on: Leukemia cell; test: Downregulation of Fosl2 mRNA expression in osteoclasts of human CSF1-induced mouse primary bone marrow derived acute myeloid leukemia cells at 250 nM measured by RT-qPCR analysis

Measured: Activity

Cc1sc2c(c1C)C(c1ccc(Cl)cc1)=N[C@@H](CC(=O)OC(C)(C)C)c1nnc(C)n1-2
active: [1] | [2] | [3] | [4]
